Key:
JAK3 = target: T1, JAK3 (Homo sapiens, UniProt P52333); test: biochemical; conditions: read-out: % enzyme activity, 1 μM; Run 1, Run 2
T1 sequence (P52333 1-1124): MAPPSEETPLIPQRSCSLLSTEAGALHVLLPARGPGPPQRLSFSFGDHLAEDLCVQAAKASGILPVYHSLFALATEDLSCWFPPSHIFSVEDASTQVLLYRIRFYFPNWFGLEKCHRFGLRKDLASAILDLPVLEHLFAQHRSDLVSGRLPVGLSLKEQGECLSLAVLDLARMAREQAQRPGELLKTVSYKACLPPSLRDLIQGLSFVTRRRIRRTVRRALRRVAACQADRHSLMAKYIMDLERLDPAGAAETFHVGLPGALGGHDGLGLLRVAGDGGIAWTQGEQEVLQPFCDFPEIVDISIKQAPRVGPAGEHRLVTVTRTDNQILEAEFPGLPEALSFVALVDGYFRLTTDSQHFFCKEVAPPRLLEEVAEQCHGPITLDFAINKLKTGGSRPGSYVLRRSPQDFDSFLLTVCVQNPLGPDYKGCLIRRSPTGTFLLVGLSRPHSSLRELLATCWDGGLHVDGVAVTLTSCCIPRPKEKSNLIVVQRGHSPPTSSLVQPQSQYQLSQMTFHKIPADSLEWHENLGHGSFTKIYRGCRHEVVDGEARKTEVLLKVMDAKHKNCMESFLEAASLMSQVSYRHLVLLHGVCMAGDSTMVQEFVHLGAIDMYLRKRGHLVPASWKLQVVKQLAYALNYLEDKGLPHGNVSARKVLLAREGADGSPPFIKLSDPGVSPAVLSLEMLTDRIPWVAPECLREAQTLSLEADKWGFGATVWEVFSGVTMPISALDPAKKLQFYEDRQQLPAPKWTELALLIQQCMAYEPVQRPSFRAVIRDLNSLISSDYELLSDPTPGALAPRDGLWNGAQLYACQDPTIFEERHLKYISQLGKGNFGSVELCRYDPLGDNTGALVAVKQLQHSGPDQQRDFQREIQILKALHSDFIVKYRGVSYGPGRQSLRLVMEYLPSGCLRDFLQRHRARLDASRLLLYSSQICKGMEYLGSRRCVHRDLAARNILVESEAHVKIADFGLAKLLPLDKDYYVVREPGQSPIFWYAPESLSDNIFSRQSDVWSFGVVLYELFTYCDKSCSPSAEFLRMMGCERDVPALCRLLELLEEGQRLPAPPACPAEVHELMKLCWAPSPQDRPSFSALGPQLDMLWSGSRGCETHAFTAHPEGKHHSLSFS

SLK/STK2 = SLK/STK2 (Homo sapiens, UniProt Q9H2G2); test: biochemical; conditions: read-out: % enzyme activity, 1 μM; Run 1, Run 2
EPHA8 = target: T2, EPHA8 (Homo sapiens, UniProt P29322); test: biochemical; conditions: read-out: % enzyme activity, 1 μM; Run 1, Run 2
T2 sequence (P29322 28-1005): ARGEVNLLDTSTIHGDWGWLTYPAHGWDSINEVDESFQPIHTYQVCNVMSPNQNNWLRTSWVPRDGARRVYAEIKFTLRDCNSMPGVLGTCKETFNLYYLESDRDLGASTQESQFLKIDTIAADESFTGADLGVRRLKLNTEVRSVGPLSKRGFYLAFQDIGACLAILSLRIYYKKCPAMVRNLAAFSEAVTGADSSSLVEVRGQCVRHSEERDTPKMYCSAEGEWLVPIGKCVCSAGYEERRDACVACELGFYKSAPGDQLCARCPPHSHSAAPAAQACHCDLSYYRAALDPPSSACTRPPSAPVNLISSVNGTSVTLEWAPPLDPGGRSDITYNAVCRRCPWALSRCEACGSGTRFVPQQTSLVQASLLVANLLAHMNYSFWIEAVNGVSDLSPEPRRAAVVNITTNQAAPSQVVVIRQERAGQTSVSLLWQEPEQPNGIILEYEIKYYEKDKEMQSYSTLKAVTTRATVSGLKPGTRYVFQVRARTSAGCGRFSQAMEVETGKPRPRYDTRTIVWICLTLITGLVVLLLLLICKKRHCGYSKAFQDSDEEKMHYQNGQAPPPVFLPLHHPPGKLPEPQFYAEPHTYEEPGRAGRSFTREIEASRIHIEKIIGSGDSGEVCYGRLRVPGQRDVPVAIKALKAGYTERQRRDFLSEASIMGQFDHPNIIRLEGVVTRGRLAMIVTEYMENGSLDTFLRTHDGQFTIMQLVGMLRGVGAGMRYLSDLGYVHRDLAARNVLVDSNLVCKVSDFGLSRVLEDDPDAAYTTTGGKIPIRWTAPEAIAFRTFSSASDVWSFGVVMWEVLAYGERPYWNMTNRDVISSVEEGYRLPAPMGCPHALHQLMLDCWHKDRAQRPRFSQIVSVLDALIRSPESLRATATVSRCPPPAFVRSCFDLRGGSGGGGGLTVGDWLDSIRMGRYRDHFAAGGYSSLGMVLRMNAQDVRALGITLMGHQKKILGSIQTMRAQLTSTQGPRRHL

MAPKAPK5/PRAK = target: T3, MAPKAPK5/PRAK (Homo sapiens, UniProt Q8IW41); conditions: 1 μM; Run 1, Run 2
T3 sequence (Q8IW41 1-473): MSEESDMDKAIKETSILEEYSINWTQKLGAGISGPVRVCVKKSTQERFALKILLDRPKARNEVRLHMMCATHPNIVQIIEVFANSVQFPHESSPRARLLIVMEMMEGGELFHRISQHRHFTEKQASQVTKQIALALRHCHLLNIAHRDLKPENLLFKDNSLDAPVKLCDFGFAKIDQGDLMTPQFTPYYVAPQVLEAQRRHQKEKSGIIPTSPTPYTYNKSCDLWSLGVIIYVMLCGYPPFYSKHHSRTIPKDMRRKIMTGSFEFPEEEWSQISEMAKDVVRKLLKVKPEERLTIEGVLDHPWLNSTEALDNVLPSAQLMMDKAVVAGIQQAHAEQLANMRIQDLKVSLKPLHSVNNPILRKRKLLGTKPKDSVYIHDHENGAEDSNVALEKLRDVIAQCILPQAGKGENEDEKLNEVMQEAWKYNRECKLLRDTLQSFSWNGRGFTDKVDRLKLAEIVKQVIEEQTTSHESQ

Sequence of SLK/STK2 (Q9H2G2 whole entry): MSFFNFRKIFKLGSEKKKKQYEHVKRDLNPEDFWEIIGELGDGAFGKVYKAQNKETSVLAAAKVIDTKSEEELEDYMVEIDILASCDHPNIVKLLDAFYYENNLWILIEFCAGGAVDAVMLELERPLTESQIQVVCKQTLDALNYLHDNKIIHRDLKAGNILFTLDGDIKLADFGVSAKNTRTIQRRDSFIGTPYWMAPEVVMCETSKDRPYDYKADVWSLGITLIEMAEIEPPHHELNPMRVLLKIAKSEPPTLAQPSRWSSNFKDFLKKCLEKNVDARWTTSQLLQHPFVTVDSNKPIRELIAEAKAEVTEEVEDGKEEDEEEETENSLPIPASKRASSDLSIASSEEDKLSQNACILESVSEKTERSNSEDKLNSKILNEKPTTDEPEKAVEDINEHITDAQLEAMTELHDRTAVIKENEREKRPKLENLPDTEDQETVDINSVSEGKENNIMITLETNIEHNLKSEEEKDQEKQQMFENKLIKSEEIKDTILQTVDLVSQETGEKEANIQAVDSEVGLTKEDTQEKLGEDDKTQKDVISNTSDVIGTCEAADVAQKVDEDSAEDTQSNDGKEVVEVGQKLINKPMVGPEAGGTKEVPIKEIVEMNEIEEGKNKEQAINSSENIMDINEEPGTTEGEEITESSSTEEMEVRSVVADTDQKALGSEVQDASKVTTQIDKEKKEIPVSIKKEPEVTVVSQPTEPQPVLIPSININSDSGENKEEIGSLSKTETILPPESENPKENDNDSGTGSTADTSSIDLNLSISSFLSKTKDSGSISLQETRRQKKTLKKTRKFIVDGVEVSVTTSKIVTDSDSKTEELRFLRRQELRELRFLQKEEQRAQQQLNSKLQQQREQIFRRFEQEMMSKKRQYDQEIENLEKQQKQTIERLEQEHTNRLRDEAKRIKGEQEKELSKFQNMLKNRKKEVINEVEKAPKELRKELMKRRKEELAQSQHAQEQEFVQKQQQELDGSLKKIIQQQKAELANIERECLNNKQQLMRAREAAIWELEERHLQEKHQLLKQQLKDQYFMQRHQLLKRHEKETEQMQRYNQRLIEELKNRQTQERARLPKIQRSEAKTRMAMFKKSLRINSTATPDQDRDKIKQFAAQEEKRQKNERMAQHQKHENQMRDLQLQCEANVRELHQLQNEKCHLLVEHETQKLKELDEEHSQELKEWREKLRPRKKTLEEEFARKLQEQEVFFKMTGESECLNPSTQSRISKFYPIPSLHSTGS

| Compound | remaining activity at 1 µM (JAK3) | remaining activity at 1 µM (SLK/STK2) | remaining activity at 1 µM (EPHA8) | % enzyme activity (MAPKAPK5/PRAK) |
| --- | --- | --- | --- | --- |
| COc1cc(-c2cncc(-c3ccc(N4CCN(C)CC4)cc3)c2C)cc(F)c1C(N)=O [Compound 26a, 2-Fluoro-6-methoxy-4-(4-methyl-5-(4-(4-methylpiperazin-1-yl)phenyl)pyridin-3-yl)benzamide] | 106% | 100% | 95.3% | 90.60% |
| COc1cc(-c2cncc(-c3ccc(N4C[C@@H](C)N(C)[C@@H](C)C4)cc3)c2C)cc(F)c1C(N)=O [Compound 26c, 2-Fluoro-6-methoxy-4-(4-methyl-5-(4-((3R,5S)-3,4,5-trimethylpiperazin-1-yl)phenyl)pyridin-3-yl)benzamide] | 101% | 101% | 97.5% | 94.46% |

— publication PMC8213057, “Targeting ALK2: An Open Science Approach to Developing Therapeutics for the Treatment of Diffuse Intrinsic Pontine Glioma” (Journal of Medicinal Chemistry, 2020)
